This is an account of results in ChEMBL document CHEMBL1201862, “PubChem BioAssay data set” (2004).

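Tested at 5 concentrations; 48 h exposure; 96-well plates; endpoints linearly interpolated, else capped at highest concentration. GI50 is the concentration that inhibits growth by half.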 The source made the active and inactive calls. Rule as the data show it: active = GI50 up to about 1.1 µM and inactive = higher.

Common to all, as to experiment: NCI anticancer screen, dose series, 48 h
The test system of test [1] is HL-60.
For test [2], the system named is HT-29.
For test [3], the system named is SK-MEL-2.
Test [4] deals with SK-MEL-28.
Test [5] concerns NCI-H522.
Test [6] deals with IGROV-1.
Test [7] relates to HCC 2998.
Test [8] concerns RPMI-8226.
In test [9] the test system is SNB-75.
For test [10], the system named is K562.
The test system of test [11] is NCI-H226.
Test [12] deals with HCT-15.
Test [13] has as its system SW-620.
Test [14] has as its system LOX IMVI.
In test [15] the test system is MCF7.
For test [16], the system named is NCI/ADR-RES.
Test [17] relates to MDA-MB-435.

Regarding `CCN(CC)C(c1ccc(N(C)C)cc1)C(c1ccc(N(C)C)cc1)N(CC)CC` (stereo not drawn), the GI50 in test [1] was 14.8 µM (inactive); in [2], 21.6 µM (inactive); in test [3] it was 22.8 µM (inactive); in test [4] it was 26.4 µM (inactive); in test [5], > 7.29 µM (inactive); in test [6] it was 47.6 µM (inactive). The GI50 in test [7] is 40.4 µM (inactive); in [8], 21.9 µM (inactive); in test [9] it was 14.2 µM (inactive); in test [10] it was 15.8 µM (inactive); in [11] it was 27.3 µM (inactive); in test [12] it was 30.2 µM. The GI50 in test [13] was 21.4 µM (inactive).
`O=C1c2cccc([N+](=O)[O-])c2C(=O)c2nccnc21`: the GI50 is 1.04 µM (active) in test [14]; 2.15 µM (inactive) in test [1]; 2.25 µM (inactive) in test [2]; 1.45 µM (inactive) in test [3]; 1.63 µM (inactive) in [4]; 1.36 µM (inactive) in [5]. Also, the GI50 in test [7] is 2.62 µM (inactive); in [8], 3.05 µM (inactive); in test [9], 1.07 µM (active); in test [10], 1.91 µM (inactive); in test [11], 1.94 µM (inactive); in test [12] it was 1.47 µM. Further, the GI50 in [13] was 1.73 µM (inactive).
Consider `O=C(O)c1ccc(C2C(=O)N[C@@H]3CCC[C@H]23)cc1` (stereo partly drawn), for which the GI50 in test [14], in [1], in test [2], in [3], in test [4] and in test [5] was > 100 µM (inactive) throughout. The GI50 in test [6], in [7], in test [8], in test [9], in [10] and in test [11] was > 100 µM (inactive) in each case. In addition, the GI50 in [12] was > 100 µM; in test [13], > 100 µM (inactive).
Consider `COc1ccc(/C(=C/n2ccnc2)C(=O)c2ccc(OC)c(OC)c2)cc1`, for which the GI50 in test [14], in test [1], in test [3], in test [4], in test [5] and in test [7] was > 100 µM (inactive) in each case. The GI50 in test [8] is > 100 µM (inactive); in test [9] it was > 100 µM (inactive); in [10], > 100 µM (inactive); in [11] it was > 100 µM (inactive); in test [12], > 100 µM; in test [13] it was > 100 µM (inactive).
As for `NC(=O)c1c([N+](=O)[O-])cc(C(F)(F)F)cc1[N+](=O)[O-]`, the GI50 in test [14] is 51.2 µM (inactive); in test [1], 18 µM (inactive); in test [2], 41.7 µM (inactive); in [4] it was > 100 µM (inactive); in [5], 21.5 µM (inactive); in test [6], > 100 µM (inactive). The GI50 is 38.4 µM (inactive) in test [7]; > 100 µM (inactive) in [8]; > 100 µM (inactive) in [9]; 86.1 µM (inactive) in test [10]; > 100 µM (inactive) in [11]; 44.5 µM (inactive) in test [13].
`N/C(=N\O)N/N=C/c1ccc(O)c(O)c1`: the GI50 in test [14], in [1], in test [2], in test [3], in test [4] and in test [5] was > 100 µM (inactive) throughout. Further, the GI50 was > 100 µM (inactive) in test [6]; > 100 µM (inactive) in test [7]; > 100 µM (inactive) in test [8]; > 100 µM (inactive) in test [9]; 44.9 µM (inactive) in test [10]; > 100 µM (inactive) in [11]. Besides, the GI50 in test [12] is > 100 µM; in [13], > 100 µM (inactive).
Regarding `COC(=O)CCN(CCC(=O)OC)C1CC1`, the GI50 in test [14], in [1], in [2], in test [4], in test [6] and in test [15] was > 100 µM (inactive) in each case. Besides, the GI50 in test [7], in [16], in test [8], in test [9], in test [10] and in test [11] was > 100 µM (inactive) each time. For the same compound, the GI50 is > 100 µM in [12], > 100 µM (inactive) in [17] and > 100 µM (inactive) in [13].
As to `CCOC(=O)C1=C(Nc2ccc(Cl)c(Cl)c2)OC/C1=N\NS(=O)(=O)c1ccc(C)cc1`, the GI50 in test [14] is 9.48 µM (inactive); in [1], 27.9 µM (inactive); in [3], 29.6 µM (inactive); in [4], 64.7 µM (inactive); in test [5], 29 µM (inactive); in test [6], 68.9 µM (inactive). Besides, the GI50 is 33.5 µM (inactive) in test [7]; 21.6 µM (inactive) in test [8]; 35.8 µM (inactive) in [9]; 21.3 µM (inactive) in [10]; 27.3 µM (inactive) in test [11]; > 100 µM (inactive) in test [13].
As to `O=C(CCCNC(=O)OCc1ccccc1)OCc1ccc2c(c1)C(=O)c1ccccc1C2=O`, the GI50 in [14] is > 100 µM (inactive); in test [1], > 100 µM (inactive); in test [2], > 100 µM (inactive); in test [3] it was > 89.7 µM (inactive); in [4], > 100 µM (inactive); in test [5] it was > 100 µM (inactive). In addition, the GI50 is 48.9 µM (inactive) in test [6]; > 100 µM (inactive) in test [7]; > 100 µM (inactive) in test [8]; 20 µM (inactive) in test [9]; > 100 µM (inactive) in test [10]; 5.46 µM (inactive) in [11]. Moreover, the figures for the GI50 in [12] and in [13] were > 100 µM and > 100 µM (inactive), respectively.
Regarding `O=c1[nH]c2ccccc2cc1C(Cl)=C(Cl)Cl`, the GI50 in [14] was > 100 µM (inactive); in [1], 53.7 µM (inactive); in [2] it was > 100 µM (inactive); in test [3], > 100 µM (inactive); in test [4], > 100 µM (inactive); in test [5] it was > 100 µM (inactive). For the same compound, the GI50 was > 100 µM (inactive) in test [6]; > 100 µM (inactive) in [7]; > 100 µM (inactive) in test [8]; 35.2 µM (inactive) in [9]; > 100 µM (inactive) in test [10]; > 100 µM (inactive) in [11]. Besides, in test [13], the GI50 is > 100 µM (inactive).
As for `Cc1ccc(C)c(NC(=O)C(=O)Nn2c(S)nc3ccccc3c2=O)c1`, the GI50 in [14], in test [1], in test [2], in [3], in test [4] and in [5] was > 100 µM (inactive) in each case. Moreover, the GI50 in test [6], in test [7], in [8], in test [9], in [10] and in test [11] was > 100 µM (inactive) each time. Further, the figures for the GI50 in test [12] and in [13] were > 100 µM and > 100 µM (inactive), respectively.
For the compound `Clc1ccc2c(Cl)ncnc2c1I`, the GI50 in test [14] is > 100 µM (inactive); in [1], 20.1 µM (inactive); in [2], > 100 µM (inactive); in test [3] it was > 100 µM (inactive); in [4] it was > 100 µM (inactive); in test [5], 20.6 µM (inactive). The GI50 in test [6] is 52.5 µM (inactive); in test [7], > 100 µM (inactive); in test [8], 33.7 µM (inactive); in test [9], 14.6 µM (inactive); in test [10], 30.5 µM (inactive); in test [11], 32.4 µM (inactive). The GI50 in test [12] is > 100 µM; in [13], 80 µM (inactive).
`CCCCCCCCCCCCCCCC/C(C(=O)OC)=C(/O)C(=O)OCC`: the GI50 in [14] was > 100 µM (inactive); in test [1] it was > 100 µM (inactive); in [2], > 100 µM (inactive); in test [3], 68.9 µM (inactive); in test [4], > 100 µM (inactive); in test [5], > 100 µM (inactive). Also, the GI50 in [6] is > 100 µM (inactive); in [7], > 100 µM (inactive); in [8], > 100 µM (inactive); in [9] it was 55 µM (inactive); in test [10], > 100 µM (inactive); in [11], > 100 µM (inactive). Further, the GI50 in test [12] is > 100 µM; in test [13] it was > 100 µM (inactive).
Take `Cc1ccc(N2C(=O)C3C=CC(n4[nH]c(=O)n(Cc5ccccc5)c4=O)CC3C2=O)cc1` (stereo not drawn): the GI50 in test [14], in [1], in test [2], in test [3], in test [4] and in test [5] was > 100 µM (inactive) throughout. For the same compound, the GI50 in test [6] is > 100 µM (inactive); in test [7] it was > 100 µM (inactive); in test [8] it was > 100 µM (inactive); in [9], 74.6 µM (inactive); in test [10] it was > 100 µM (inactive); in test [11], > 100 µM (inactive). Besides, the GI50 was > 100 µM in test [12] and > 100 µM (inactive) in test [13].
Consider `C/C(=N/N(C=O)C[n+]1ccccc1)C(CN(CC(C)C)CC(C)C)C(=O)Nc1ccc(C)cc1C` (stereo not drawn), for which the GI50 is 73.1 µM (inactive) in [1]; > 100 µM (inactive) in test [2]; > 100 µM (inactive) in [3]; > 100 µM (inactive) in test [4]; > 100 µM (inactive) in test [5]; > 100 µM (inactive) in [6]. For the same compound, the GI50 in test [7], in test [8], in test [10] and in test [13] was > 100 µM (inactive) each time.
